Measurements from patent US20070066632A1, “Fused bicyclic inhibitors of TGFbeta” (Scios, Inc., priority 2005, published 2007).

target: T1, TGFβ R1 (Homo sapiens, UniProt P36897); experiment: TGFβ R1 autophosphorylation protocol; format: biochemical; details: 10 uM ATP, 170 nM TGFβ R1, 20 minutes at room temperature; read-out: IC50 for Kinase Inhibition
T1 sequence (P36897 34-503): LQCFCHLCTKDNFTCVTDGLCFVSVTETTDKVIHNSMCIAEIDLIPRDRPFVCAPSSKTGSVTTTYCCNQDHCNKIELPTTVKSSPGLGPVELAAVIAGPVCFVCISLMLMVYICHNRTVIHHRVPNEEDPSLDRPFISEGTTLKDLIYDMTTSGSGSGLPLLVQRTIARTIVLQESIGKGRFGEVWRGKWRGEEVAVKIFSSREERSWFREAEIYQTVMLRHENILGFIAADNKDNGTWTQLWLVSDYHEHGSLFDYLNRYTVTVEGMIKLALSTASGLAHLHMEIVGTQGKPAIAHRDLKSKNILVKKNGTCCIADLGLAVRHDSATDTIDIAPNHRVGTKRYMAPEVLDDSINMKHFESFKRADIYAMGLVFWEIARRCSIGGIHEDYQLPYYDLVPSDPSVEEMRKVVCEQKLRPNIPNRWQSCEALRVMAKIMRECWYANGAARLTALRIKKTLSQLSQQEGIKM
Experimental: The compounds of the invention were tested for their ability to inhibit TGFβ by a TGFβ R^1 autophosphorylation protocol. This was conducted as follows: Compound dilutions and reagents were prepared fresh daily. Compounds were diluted from DMSO stock solutions to 2 times the desired assay concentration, keeping final DMSO concentration in the assay less than or equal to 1%. TGFβ R1 was diluted to 4 times the desired assay concentration in buffer+DTT. ATP was diluted into 4× reaction buffer, and gamma-^33P-ATP was added at 60 uCi/mL.
The assay was performed by adding 10 ul of the enzyme to 20 ul of the compound solution. The reaction was initiated by the addition of 10 ul of ATP mix. Final assay conditions included 10 uM ATP, 170 nM TGFβ R1, and […] in 20 mM MOPS, pH7. The reactions were incubated at room temperature for 20 minutes. The reactions were stopped by transferring 23 ul of reaction mixture onto a phosphocellulose 96-well filter plate, which had been pre-wetted with 15 ul of 0.25M H3PO4 per well. After 5 minutes, the wells were washed 4× with 75 mM H3PO4 and once with 95% ethanol. The plate was dried, scintillation cocktail was added to each well, and the wells were counted in a Packard TopCount microplate scintillation counter.

| Structure (SMILES) | IC50 |
| --- | --- |
| NC(=O)c1cnccc1Nc1nc(-c2cc(Cl)ccc2F)nc2ncccc12 [Compound 1] | 20 nM |
| CNC(=O)c1cnccc1Nc1nc(-c2cc(Cl)ccc2F)nc2ncccc12 [Compound 2] | 70 nM |
| CNC(=O)c1cnccc1Nc1nc(-c2cc(Cl)ccc2NC)nc2ncccc12 [Compound 3] | 1600 nM |
| CNC(=O)c1cnccc1Nc1nc(-c2cc(Cl)ccc2F)nc2nc(NCCN(C)C)ccc12 [Compound 5] | 6040 nM |
| CC(O)CNC(=O)c1cnccc1Nc1nc(-c2cc(Cl)ccc2F)nc2nc(NCCN(C)C)ccc12 (stereo not shown) [Compound 6] | 12200 nM |
| COc1ccc(CNc2ccc3c(Nc4ccncc4C(=O)NC4CC4)nc(-c4cc(Cl)ccc4F)nc3n2)cc1 [Compound 8] | 1400 nM |
| Nc1ccc2c(Nc3ccncc3C(=O)NC3CC3)nc(-c3cc(Cl)ccc3F)nc2n1 [Compound 9] | 2700 nM |
| C[C@H](O)CNC(=O)c1cnccc1Nc1nc(-c2cc(Cl)ccc2F)nc2nc(N)ccc12 [Compound 10] | 5010 nM |

The remaining lines, values ahead:

| IC50 | Structure (SMILES) |
| --- | --- |
| 30 nM | CNC(=O)c1cnccc1Nc1nc(-c2cc(Cl)ccc2F)nc2nc(N)ccc12 [Compound 4] |
| 980 nM | CNC(=O)c1cnccc1Nc1nc(-c2cc(Cl)ccc2F)nc2nc(NCCOC)ccc12 [Compound 7] |
| 1370 nM | COC(=O)c1cnccc1Nc1nc(-c2cc(Cl)ccc2F)nc2ncccc12 [Compound 11] |
| 230 nM | O=C(O)c1cnccc1Nc1nc(-c2cc(Cl)ccc2F)nc2ncccc12 [Compound 12] |
| 530 nM | CCOC(=O)c1cnccc1Nc1nc(-c2cc(Cl)ccc2F)nc2ncccc12 [Compound 13] |
| 225 nM | CN(Cc1ccccc1)c1ccc2c(Nc3ccncc3C(=O)O)nc(-c3cc(Cl)ccc3F)nc2n1 [Compound 14] |
| 569 nM | COc1ccc(CN(Cc2ccc(OC)cc2)c2ccc3c(Nc4ccncc4C(=O)O)nc(-c4cc(Cl)ccc4F)nc3n2)cc1 [Compound 15] |
| 745 nM | COC(=O)c1cnccc1Nc1nc(-c2cc(Cl)ccc2F)nc2nc(N(Cc3ccc(OC)cc3)Cc3ccc(OC)cc3)ccc12 [Compound 16] |
| 990 nM | COc1ccc(CNc2ccc3c(Nc4ccncc4C(=O)NCCCN4CCOCC4)nc(-c4cc(Cl)ccc4F)nc3n2)cc1 [Compound 18] |

system: HCV replicons (HCV type 1b NS3-NS5B) in Huh-Luc cells; experiment: HCV replicon assay (Huh-7 luc/neo, luciferase reporter); format: cell-based; details: Hepatitis C virus, Huh-7, 72 h, incubation of three days, luciferase activity
Description: The pyrido[2,3-d]pyrimidine compounds of the present invention were examined for activity in the inhibition of HCV RNA replication in a cellular assay. […] The cellular assay was based on a bicistronic expression construct, as described by Lohmann et al. (1999) Science vol. 285 pp. 110-113 with modifications described by Krieger et al. (2001) Journal of Virology 75: 4614-4624, in a multi-target screening strategy. In essence, the method was as follows.
The assay utilized the stably transfected cell line Huh-7 luc/neo (hereafter referred to as Huh-Luc). […]
The replicon cells were plated in 384-well plates in the presence of the test and control compounds which were added in various concentrations. Following an incubation of three days, HCV replication was measured by assaying luciferase activity (using standard luciferase assay substrates and reagents and a Perkin Elmer ViewLux™, ultraHTS microplate imager). […] The inhibitory activity of the compound on luciferase activity was monitored on the Huh-Luc cells, enabling a dose-response curve for each test compound. […]
The replicon cells are plated in 384 well plates in the presence of the test and control compounds which are added in various concentrations. […] The inhibitory activity of the compound on luciferase activity is monitored on the Huh-Luc cells, enabling a dose-response curve for each test compound.

| Structure (SMILES) | EC50 |
| --- | --- |
| NC(=O)c1cnccc1Nc1nc(-c2cc(Cl)ccc2F)nc2ncccc12 [Compound 1] | 0.76 µM |
| CNC(=O)c1cnccc1Nc1nc(-c2cc(Cl)ccc2F)nc2ncccc12 [Compound 2] | 11.9 µM |
